According to ChEMBL document CHEMBL4732150 (J Med Chem, 2021):
The source made the active and inactive calls. No cut-off for these calls is given here.

Key:
NCI-H1975 = test: Antiproliferative activity against human NCI-H1975 cells assessed as reduction in cell viability incubated for 72 hrs by sulforhodamine B assay; type: functional, cell-based; conditions: NCI-H1975, 72 h
[1] = Selectivity ratio of IC50 for antiproliferative activity against human A-431 cells to IC50 for antiproliferative activity against human NCI-H1975 cells; type: functional
A-431 = test: Antiproliferative activity against human A-431 cells assessed as reduction in cell viability incubated for 72 hrs by sulforhodamine B assay; type: functional, cell-based; conditions: A-431, 72 h
BaF3 [2] = test: cells; conditions: Mus musculus, BaF3, 72 h
BaF3 [3] = test: cells; conditions: Mus musculus, BaF3, 72 h; remark: listed apart in the source
in vitro = conditions: human, liver microsomes
in vivo = conditions: Sprague-Dawley, rat, po, 6 mg/kg
[4] = Intrinsic clearance in Beagle dog liver microsomes preincubated for 10 mins under shaking condition followed by NADPH generating system addition and measured up to 60 mins by LC-MS/MS analysis; type: ADME, Canis lupus familiaris, Microsome; conditions: 1 h, time <=70 min
[5] = Cmax in Sprague-Dawley rat assessed as AZ5104 at 6 mg/kg/day, IG administered as single dose and measured up to 24 hrs by LC-MS/MS analysis; type: ADME, organism-based; parameters: route […], dose 6 mg/kg/day, time <=24; conditions: in vivo, po
[6] = Tmax in Sprague-Dawley rat assessed as AZ5104 at 6 mg/kg/day, IG administered as single dose and measured up to 24 hrs by LC-MS/MS analysis; type: ADME, organism-based; conditions: in vivo, po
[7] = Intrinsic clearance in Sprague-Dawley rat liver microsomes preincubated for 10 mins under shaking condition followed by NADPH generating system addition and measured up to 60 mins by LC-MS/MS analysis; type: ADME, Microsome; conditions: 1 h, time <=70 min
[8] = Intrinsic clearance in cynomolgus monkey liver microsomes preincubated for 10 mins under shaking condition followed by NADPH generating system addition and measured up to 60 mins by LC-MS/MS analysis; type: ADME, Macaca fascicularis, Microsome; conditions: 1 h, time <=70 min
[9] = Half life in Beagle dog liver microsomes preincubated for 10 mins under shaking condition followed by NADPH generating system addition and measured up to 60 mins by LC-MS/MS analysis
[10] = Intrinsic clearance in human liver microsomes preincubated for 10 mins under shaking condition followed by NADPH generating system addition and measured up to 60 mins by LC-MS/MS analysis; type: ADME, Microsome; conditions: 1 h, time <=70 min
[11] = Cmax in Sprague-Dawley rat at 6 mg/kg/day, IG administered as single dose and measured up to 24 hrs by LC-MS/MS analysis; type: ADME, organism-based; parameters: route […], dose 6 mg/kg/day, time <=24; conditions: in vivo, po
BaF3 [12] = test: Antitumor activity against mouse BAF3 cells harboring EGFR del19/T790M mutant xenografted in Balb/c nude mouse assessed as suppression of tumor growth at 3 to 5 mg/kg, po QD administered via gavage for 18 days relative to control; type: functional, organism-based; conditions: dose 3-5 mg/kg, time 18.0 day, tested as the 2H-labelled form
[13] = Intrinsic clearance in CD1 mouse liver microsomes preincubated for 10 mins under shaking condition followed by NADPH generating system addition and measured up to 60 mins by LC-MS/MS analysis; type: ADME, Microsome; conditions: 1 h, time <=70 min
[14] = Half life in CD1 mouse liver microsomes preincubated for 10 mins under shaking condition followed by NADPH generating system addition and measured up to 60 mins by LC-MS/MS analysis
[15] = Half life in Sprague-Dawley rat liver microsomes preincubated for 10 mins under shaking condition followed by NADPH generating system addition and measured up to 20 mins by LC-MS/MS analysis
[16] = Toxicity in Balb/c nude mouse xenografted with human NCI-H1975 cells harboring EGFR L858R/T790M mutant assessed as change in body weight at 1.5 to 2.5 mg/kg, po QD administered via gavage for 24 days and measured twice weekly; type: organism-based; conditions: in vivo, 576 h, dose 1.5-2.5 mg/kg, time 24 day
[17] = Half life in cynomolgus monkey liver microsomes preincubated for 10 mins under shaking condition followed by NADPH generating system addition and measured up to 60 mins by LC-MS/MS analysis
[18] = Apparent oral clearance in Sprague-Dawley rat at 6 mg/kg/day, IG administered as single dose and measured up to 24 hrs by LC-MS/MS analysis; type: ADME, organism-based; conditions: in vivo

IC50 (NCI-H1975) [µM]	IC50 (A-431) [µM]	Structure (SMILES)	Ratio IC50 [1]	other results
0.147	1.06	C=C(Br)C(=O)Nc1cc(Nc2nccc(-c3cn(C)c4ccccc34)n2)c(OC)cc1N(C)CCN(C)C	7	
0.241	1.55	C=C(Cl)C(=O)Nc1cc(Nc2nccc(-c3cn(C)c4ccccc34)n2)c(OC)cc1N(C)CCN(C)C	6	
0.208	2.5	C=C(F)C(=O)Nc1cc(Nc2nccc(-c3cn(C)c4ccccc34)n2)c(OC)cc1N(C)CCN(C)C	12	
0.486	5.34	C=C(C)C(=O)Nc1cc(Nc2nccc(-c3cn(C)c4ccccc34)n2)c(OC)cc1N(C)CCN(C)C	11	
0.546	11.2	C=C(C(=O)Nc1cc(Nc2nccc(-c3cn(C)c4ccccc34)n2)c(OC)cc1N(C)CCN(C)C)C(F)(F)F	21	
0.496	5.79	C/C=C/C(=O)Nc1cc(Nc2nccc(-c3cn(C)c4ccccc34)n2)c(OC)cc1N(C)CCN(C)C	12	

Structure (SMILES)	IC50 (NCI-H1975) [µM]	IC50 (A-431) [µM]	Ratio IC50 [1]	other results
[2H]C([2H])=CC(=O)Nc1cc(Nc2nccc(-c3cn(C([2H])([2H])[2H])c4ccccc34)n2)c(OC)cc1N(C)CCN(C)C	[…]	[…]		IC50 (BaF3 [2]): 0.018 µM; IC50 (BaF3 [3]): 0.0035 µM
C=CC(=O)Nc1cc(Nc2nccc(-c3cn(C)c4ccccc34)n2)c(OC)cc1N(C)CCN(C)C [OSIMERTINIB]		[…]		half-life at 1 h (in vitro): […]; half-life at 24 h (in vivo): 227 min; CLint [4]: 53.2 µL/min/mg; Cmax [5]: 0.0064 µM; Tmax [6]: 380 min; CLint [7]: 37.6 µL/min/mg; CLint [8]: 41.7 µL/min/mg; half-life at 1 h [9]: 26.1 min; CLint [10]: 8.1 µL/min/mg; IC50 (BaF3 [2]): 0.0215 µM; Cmax [11]: 0.145 µM; Activity (BaF3 [12]): Active; CLint [13]: 62.1 µL/min/mg; half-life at 1 h [14]: 22.3 min; half-life at 20 min [15]: 36.8 min; Activity [16]: Toxic; IC50 (BaF3 [3]): 0.004 µM; half-life at 1 h [17]: […]; CL/F [18]: 18.8 L/h/kg
